Experimental data as given in ChEMBL document CHEMBL5465560, “Selectivity Literature for EUbOPEN Chemogenomic Library” (2024).
Each block holds one compound with its values, some of them ahead of it.

Experiments:
[1] = target: Beta-1 adrenergic receptor (Homo sapiens, UniProt P08588); experiment: Selectivity interaction (Eurofins CEREP Diversity Profile (receptors and ion channels)) EUB0000279b ADRB1; details: at 10 µM
SRSF protein kinase 1 = SRSF protein kinase 1 (Homo sapiens, UniProt Q96SB4); experiment: Selectivity interaction (KinomeScan (DiscoverX)) EUB0000666a SRPK1; details: at 10 µM
[2] = target: Mitogen-activated protein kinase 9 (Homo sapiens, UniProt P45984); experiment: Selectivity interaction (Upstate Kinase Profiler service (Millipore)) EUB0000056c MAPK9; details: at 1 µM
[3] = target: T1, Testis-specific serine/threonine-protein kinase 3 (Homo sapiens) (UniProt Q96PN8); experiment: Selectivity interaction (KinomeScan (DiscoverX)) EUB0000695a TSSK3; details: at 100 nM
T1 sequence (whole entry): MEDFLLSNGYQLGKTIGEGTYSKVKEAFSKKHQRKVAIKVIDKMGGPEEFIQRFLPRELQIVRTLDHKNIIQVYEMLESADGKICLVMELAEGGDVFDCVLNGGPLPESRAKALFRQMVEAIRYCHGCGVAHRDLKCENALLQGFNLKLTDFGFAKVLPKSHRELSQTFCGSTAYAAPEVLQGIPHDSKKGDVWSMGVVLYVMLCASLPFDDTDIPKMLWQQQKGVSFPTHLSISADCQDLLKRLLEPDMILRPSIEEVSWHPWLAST

[4] = target: Calcium/calmodulin-dependent protein kinase kinase 2 (Homo sapiens) (UniProt Q96RR4); experiment: Selectivity interaction (Kinase panel (DSF assay)) EUB0001559a CAMKK2
[5] = target: Receptor tyrosine-protein kinase erbB-3 (Homo sapiens) (UniProt P21860); experiment: Selectivity interaction (KinomeScan (DiscoverX)) EUB0000595a ERBB3; details: at 10 µM
[6] = target: Bone morphogenetic protein receptor type-1A (Homo sapiens, UniProt P36894); experiment: Selectivity interaction (KinomeScan (DiscoverX)) EUB0000595a BMPR1A; details: at 10 µM
[7] = target: Death-associated protein kinase 2 (Homo sapiens) (UniProt Q9UIK4); experiment: Selectivity interaction (Ambit KINOMEscan and KiNATiv profiling in Jurkat cells) EUB0000090b DAPK2; format: cell-based; details: at 1 µM
[8] = target: BDNF/NT-3 growth factors receptor (Homo sapiens) (UniProt Q16620); experiment: Selectivity interaction (SelectScreen Kinase Profiling (Thermo Fisher Scientific)) EUB0001558a NTRK2; details: at 1 µM
[9] = target: Vascular endothelial growth factor receptor 3 (Homo sapiens, UniProt P35916); experiment: Selectivity interaction (KinomeScan (DiscoverX)) EUB0000045b FLT4
[10] = target: T2, Dual specificity tyrosine-phosphorylation-regulated kinase 2 (Homo sapiens) (UniProt Q92630); experiment: Selectivity interaction (KinomeScan (DiscoverX)) EUB0000045b DYRK2
T2 sequence (whole entry): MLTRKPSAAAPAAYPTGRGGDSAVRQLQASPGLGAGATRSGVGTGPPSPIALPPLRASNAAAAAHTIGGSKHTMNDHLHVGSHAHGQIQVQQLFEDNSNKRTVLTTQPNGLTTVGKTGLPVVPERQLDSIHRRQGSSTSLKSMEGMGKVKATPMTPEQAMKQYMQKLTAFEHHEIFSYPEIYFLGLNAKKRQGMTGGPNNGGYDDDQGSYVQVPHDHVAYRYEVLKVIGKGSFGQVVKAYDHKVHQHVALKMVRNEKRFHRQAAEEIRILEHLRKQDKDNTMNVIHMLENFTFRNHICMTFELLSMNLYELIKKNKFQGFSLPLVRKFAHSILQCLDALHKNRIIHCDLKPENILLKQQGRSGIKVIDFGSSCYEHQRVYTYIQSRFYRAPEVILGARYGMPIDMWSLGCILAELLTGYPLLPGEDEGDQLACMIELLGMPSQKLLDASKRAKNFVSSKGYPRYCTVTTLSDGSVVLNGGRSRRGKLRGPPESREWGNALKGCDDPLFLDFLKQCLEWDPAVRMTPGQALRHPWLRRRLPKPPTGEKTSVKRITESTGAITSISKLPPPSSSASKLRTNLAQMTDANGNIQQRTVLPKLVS

[11] = target: T3, Serine/threonine-protein kinase TBK1 (Homo sapiens) (UniProt Q9UHD2); experiment: Selectivity interaction (Kinase panel (KiNativ target engagement assay in Jurkat cells)) EUB0001635a TBK1; format: cell-based; details: Selectivity number of off-targets 0.0, Selectivity number of targets 233.0, Source Knowledge https://www.sciencedirect.com/science/article/pii/S2451945619300674?via%3Dihub, at 1 µM
T3 sequence (whole entry): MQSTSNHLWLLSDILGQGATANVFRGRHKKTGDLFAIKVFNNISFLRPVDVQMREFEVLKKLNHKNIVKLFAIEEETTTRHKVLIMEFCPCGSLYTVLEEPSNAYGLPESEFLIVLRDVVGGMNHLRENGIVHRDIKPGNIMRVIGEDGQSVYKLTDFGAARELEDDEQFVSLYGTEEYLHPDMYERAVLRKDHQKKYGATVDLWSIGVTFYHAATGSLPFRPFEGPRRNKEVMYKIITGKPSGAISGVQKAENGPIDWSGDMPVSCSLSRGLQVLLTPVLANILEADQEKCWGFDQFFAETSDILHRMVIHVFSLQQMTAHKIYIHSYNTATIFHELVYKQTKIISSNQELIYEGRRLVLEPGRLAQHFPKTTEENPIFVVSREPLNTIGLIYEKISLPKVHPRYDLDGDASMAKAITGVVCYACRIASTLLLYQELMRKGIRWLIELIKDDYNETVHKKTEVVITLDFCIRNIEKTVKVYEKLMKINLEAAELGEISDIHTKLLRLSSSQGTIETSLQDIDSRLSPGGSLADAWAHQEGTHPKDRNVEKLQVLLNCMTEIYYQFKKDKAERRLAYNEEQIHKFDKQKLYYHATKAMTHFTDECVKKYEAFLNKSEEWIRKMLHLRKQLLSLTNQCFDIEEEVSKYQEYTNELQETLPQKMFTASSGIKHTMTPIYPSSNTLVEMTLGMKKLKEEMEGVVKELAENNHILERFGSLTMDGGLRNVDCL

[12] = target: Tyrosine-protein kinase FRK (Homo sapiens) (UniProt P42685); experiment: Selectivity interaction (KinomeScan (DiscoverX)) EUB0000092b FRK; details: at 10 µM
Tyrosine-protein kinase FRK (Homo sapiens), sequence (P42685 whole entry): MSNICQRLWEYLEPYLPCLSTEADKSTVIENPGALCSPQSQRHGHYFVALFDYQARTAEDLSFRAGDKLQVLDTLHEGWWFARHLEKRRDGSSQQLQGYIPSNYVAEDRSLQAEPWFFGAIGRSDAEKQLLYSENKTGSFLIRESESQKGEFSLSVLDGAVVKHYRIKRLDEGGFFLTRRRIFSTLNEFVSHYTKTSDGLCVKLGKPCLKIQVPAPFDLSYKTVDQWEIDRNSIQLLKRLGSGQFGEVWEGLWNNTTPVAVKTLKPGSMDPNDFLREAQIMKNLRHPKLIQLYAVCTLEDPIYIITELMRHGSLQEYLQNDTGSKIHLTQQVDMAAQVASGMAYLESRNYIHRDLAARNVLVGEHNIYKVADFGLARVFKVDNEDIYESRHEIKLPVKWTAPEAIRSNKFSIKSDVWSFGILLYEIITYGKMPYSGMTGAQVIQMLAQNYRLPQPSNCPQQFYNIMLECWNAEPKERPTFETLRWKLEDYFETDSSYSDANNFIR

Vascular endothelial growth factor receptor 3, sequence (P35916 whole entry): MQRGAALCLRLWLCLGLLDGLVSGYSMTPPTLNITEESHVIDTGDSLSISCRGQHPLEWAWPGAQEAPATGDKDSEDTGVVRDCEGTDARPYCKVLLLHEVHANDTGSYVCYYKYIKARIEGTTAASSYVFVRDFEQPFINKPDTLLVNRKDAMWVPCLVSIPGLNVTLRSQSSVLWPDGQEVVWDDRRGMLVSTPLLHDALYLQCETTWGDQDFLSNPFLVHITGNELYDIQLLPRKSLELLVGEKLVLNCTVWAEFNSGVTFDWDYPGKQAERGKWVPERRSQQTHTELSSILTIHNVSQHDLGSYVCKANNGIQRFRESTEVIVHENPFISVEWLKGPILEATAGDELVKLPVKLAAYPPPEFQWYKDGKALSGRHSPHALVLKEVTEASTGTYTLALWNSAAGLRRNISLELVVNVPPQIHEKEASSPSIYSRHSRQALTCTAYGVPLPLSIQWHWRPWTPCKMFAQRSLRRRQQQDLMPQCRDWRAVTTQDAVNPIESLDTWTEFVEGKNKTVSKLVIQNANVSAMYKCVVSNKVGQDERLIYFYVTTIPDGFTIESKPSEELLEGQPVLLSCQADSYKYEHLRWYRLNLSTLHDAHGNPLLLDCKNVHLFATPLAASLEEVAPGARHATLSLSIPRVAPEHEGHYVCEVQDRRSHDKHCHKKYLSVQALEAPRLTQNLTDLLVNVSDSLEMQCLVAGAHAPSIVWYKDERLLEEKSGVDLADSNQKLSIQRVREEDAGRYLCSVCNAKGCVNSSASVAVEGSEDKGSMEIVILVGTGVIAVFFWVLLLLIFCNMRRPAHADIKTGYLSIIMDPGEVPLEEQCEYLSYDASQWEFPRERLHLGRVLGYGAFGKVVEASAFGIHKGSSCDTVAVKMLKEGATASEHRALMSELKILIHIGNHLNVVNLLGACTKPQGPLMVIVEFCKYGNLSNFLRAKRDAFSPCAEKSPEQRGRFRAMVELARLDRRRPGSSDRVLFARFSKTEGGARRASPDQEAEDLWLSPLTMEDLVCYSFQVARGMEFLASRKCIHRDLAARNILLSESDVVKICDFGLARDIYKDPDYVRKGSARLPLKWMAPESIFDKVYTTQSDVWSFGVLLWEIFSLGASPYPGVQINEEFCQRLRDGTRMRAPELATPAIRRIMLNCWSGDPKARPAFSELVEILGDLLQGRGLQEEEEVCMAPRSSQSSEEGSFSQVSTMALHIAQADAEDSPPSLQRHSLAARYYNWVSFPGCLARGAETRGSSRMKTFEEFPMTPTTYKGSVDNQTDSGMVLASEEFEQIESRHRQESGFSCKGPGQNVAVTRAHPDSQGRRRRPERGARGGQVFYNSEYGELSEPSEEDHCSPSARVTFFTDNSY
Calcium/calmodulin-dependent protein kinase kinase 2 (Homo sapiens), sequence (Q96RR4 2-588 limits assumed): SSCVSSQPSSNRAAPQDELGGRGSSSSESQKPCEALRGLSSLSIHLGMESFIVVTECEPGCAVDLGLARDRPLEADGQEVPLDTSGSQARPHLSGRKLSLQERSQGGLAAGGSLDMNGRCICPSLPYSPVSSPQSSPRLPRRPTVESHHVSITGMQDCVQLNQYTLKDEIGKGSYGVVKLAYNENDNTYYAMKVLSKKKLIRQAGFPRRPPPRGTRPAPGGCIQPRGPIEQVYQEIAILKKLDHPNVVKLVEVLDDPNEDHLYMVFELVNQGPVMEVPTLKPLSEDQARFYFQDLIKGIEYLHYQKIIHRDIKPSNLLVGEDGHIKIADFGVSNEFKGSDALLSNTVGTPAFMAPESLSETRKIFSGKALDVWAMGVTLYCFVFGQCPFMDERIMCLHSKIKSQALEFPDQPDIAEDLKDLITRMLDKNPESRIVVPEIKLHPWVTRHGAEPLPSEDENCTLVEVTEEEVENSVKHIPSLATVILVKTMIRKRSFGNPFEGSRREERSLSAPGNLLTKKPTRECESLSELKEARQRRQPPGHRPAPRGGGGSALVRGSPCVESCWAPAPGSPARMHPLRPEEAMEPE
Bone morphogenetic protein receptor type-1A, sequence (P36894 whole entry): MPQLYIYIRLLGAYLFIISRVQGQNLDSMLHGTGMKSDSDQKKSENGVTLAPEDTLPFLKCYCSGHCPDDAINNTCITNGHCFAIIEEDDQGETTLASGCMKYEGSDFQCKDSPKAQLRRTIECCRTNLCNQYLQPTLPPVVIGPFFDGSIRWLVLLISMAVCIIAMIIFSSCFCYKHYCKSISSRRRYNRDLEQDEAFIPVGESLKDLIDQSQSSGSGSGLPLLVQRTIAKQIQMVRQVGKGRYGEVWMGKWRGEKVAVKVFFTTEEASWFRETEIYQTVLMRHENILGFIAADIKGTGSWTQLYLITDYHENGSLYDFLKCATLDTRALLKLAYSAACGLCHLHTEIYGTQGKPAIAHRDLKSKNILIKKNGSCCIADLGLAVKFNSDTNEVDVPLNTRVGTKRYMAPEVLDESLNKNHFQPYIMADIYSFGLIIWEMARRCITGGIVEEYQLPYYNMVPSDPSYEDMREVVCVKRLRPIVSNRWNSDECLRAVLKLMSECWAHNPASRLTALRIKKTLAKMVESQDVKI
Death-associated protein kinase 2 (Homo sapiens), sequence (Q9UIK4 whole entry, looked up): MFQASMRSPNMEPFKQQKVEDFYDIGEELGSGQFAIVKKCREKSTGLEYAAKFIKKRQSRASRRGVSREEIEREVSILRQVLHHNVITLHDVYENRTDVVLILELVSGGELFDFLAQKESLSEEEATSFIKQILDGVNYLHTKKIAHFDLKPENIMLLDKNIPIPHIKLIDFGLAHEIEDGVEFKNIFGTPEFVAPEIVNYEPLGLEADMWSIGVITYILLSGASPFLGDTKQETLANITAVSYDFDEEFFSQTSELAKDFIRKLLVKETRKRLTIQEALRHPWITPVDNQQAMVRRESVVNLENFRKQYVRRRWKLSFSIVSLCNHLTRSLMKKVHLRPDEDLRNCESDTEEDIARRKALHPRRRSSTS
SRSF protein kinase 1, sequence (Q96SB4 whole entry): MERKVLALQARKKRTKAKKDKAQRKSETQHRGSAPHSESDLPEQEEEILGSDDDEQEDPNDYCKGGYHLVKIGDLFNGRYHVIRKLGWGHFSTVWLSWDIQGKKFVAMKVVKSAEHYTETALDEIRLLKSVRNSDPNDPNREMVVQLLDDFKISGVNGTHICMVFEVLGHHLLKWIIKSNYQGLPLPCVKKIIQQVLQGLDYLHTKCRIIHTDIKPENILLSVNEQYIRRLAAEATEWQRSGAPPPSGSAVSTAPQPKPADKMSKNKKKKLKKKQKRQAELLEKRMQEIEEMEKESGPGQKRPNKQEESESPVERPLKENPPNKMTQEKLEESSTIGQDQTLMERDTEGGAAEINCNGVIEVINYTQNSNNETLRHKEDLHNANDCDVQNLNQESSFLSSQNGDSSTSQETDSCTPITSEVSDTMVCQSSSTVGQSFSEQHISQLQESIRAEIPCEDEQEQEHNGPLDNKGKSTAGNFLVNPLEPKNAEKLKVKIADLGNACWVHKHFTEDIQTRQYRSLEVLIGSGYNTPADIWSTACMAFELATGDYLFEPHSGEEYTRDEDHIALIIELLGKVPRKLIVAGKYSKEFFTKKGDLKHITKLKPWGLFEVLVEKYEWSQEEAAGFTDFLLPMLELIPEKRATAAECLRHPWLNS
Mitogen-activated protein kinase 9, sequence (P45984 whole entry, looked up): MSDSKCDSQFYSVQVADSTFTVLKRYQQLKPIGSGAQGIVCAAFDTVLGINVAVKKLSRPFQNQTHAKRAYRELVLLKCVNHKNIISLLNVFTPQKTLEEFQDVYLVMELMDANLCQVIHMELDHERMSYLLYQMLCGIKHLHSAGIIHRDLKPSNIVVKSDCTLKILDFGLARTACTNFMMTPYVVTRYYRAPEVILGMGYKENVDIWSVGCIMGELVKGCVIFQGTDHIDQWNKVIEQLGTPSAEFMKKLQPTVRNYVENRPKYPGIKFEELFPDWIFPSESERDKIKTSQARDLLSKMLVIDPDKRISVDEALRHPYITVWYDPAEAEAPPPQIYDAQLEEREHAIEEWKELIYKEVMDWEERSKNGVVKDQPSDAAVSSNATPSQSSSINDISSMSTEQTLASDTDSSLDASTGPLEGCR
Beta-1 adrenergic receptor, sequence (P08588 whole entry, looked up): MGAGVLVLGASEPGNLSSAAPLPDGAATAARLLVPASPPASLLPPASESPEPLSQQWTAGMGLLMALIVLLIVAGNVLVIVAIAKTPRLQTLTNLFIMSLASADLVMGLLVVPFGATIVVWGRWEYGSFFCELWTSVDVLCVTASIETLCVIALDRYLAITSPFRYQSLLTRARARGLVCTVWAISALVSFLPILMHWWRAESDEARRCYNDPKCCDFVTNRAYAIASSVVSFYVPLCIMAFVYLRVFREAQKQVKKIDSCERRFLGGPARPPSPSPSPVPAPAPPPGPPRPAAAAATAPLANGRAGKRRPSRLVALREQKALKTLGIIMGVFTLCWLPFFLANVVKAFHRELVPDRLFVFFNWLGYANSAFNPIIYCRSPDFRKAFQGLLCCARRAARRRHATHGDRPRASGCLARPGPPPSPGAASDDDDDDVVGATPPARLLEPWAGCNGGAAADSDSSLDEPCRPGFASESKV

% of control [1]: 87%
SMILES: CC(=O)c1cc(-c2ccccc2OCC2CC2)c2ncccn12

SMILES: O=C(NOC[C@H](O)CO)c1ccc(F)c(F)c1Nc1ccc(I)cc1F
% of control (SRSF protein kinase 1): 100%

% of inhibition [2]: -12%
SMILES: Cc1ccc(-c2ccc3c(ccc4sc5c(c43)NC[C@@H](C)NC5=O)n2)cn1

SMILES: Cc1cc(F)c(C(=O)Nc2cccc(-c3nncn3C(C)C)n2)cc1-n1cnc(C2CC2)c1
% of control [3]: 57%

dTM [4]: 1.1 K
SMILES: CN(C(=O)c1cnn2cccnc12)c1cc2c(cc1N1CCOCC1)C(=O)N(C[C@@H](F)C(C)(C)O)C2

SMILES: COCC(=O)NC/C=C/c1ccc2ncnc(Nc3ccc(Oc4ccc(C)nc4)c(C)c3)c2c1 [CP-724714]
% of control [5]: 20%
% of control [6]: 100%

SMILES: CN(C)C/C=C/C(=O)Nc1ccc(C(=O)N2CCCC(Nc3ncc(Cl)c(-c4c[nH]c5ccccc45)n3)C2)cc1 (stereo not given)
% of control [7]: 98%

SMILES: CC(C)(O)[C@H](F)CN1Cc2cc(NC(=O)c3cnn4cccnc34)c(N3CCOCC3)cc2C1=O
% of inhibition [8]: 86%

SMILES: C=CC(=O)Nc1cc(-n2c(=O)ccc3cnc4ccc(-c5ccc(NS(C)(=O)=O)cc5)cc4c32)ccc1C
% of control ([9]; at 1 µM): 72%
% of control ([9]; at 10 µM): 100%
% of control ([10]; at 1 µM): 100%
% of control ([10]; at 10 µM): 91%

SMILES: C=CC(=O)Nc1ccc(C(=O)Nc2[nH]nc3c2CN(C(=O)N[C@H](CN(C)C)c2ccccc2)C3(C)C)cc1
% of engagement [11]: 32.4%

SMILES: CCC(=O)N1CCN(c2ccc(-n3c(=O)ccc4cnc5ccc(-c6cnc7ccccc7c6)cc5c43)cc2C(F)(F)F)CC1
% of control [12]: 60%
